These results are taken from patent publication US20220015355A1, “NOVEL CARRIER FLUIDS FOR LIQUID FUNGAL SPORE FORMULATIONS” (priority 2018, published 2022).

Where two headings read alike, the source gives them in different places. Marks after values point to notes of the source that are not given here.

Data set [1] relates to P. lilacinum strain 251 spores. Put plainly: spore viability (germination rate on agar) of P. lilacinum spores in carrier fluid after storage at 30° C. Type of data set: cell-based, Purpureocillium lilacinum. The following applies: for decline in spore viability at day 1 and after storage: fluids not within the scope of the invention. The protocol: 3 g of P. lilacinum strain 251 pure spore powder were transferred into a formulation vessel (IKA Type DT-20 mixing vessel with dispersion tool for Ultra Turrax) using a sterile spoon. 12 mL of fluid were added into the respective formulation vessel and dispersed using ultra turrax tube drive control for 1 min at 3000 rpm; change direction after 30 sec. After this 2.8 mL were transferred in four sample bottles (Wheaton Serum vial, Type I) leaving little headspace and closed tight using crimpneck caps (Macherey—Nagel type N 13) Afterwards all sample bottles were transferred to an incubator set at 30° C. and stored for a given time.
In regular intervals a sample was retrieved from the storage location and analyzed for spore viability. Therefore the original samples were thoroughly homogenized. Aliquots of 0.25 g or […] of each sample are transferred into 50 mL falcon tubes. The tubes were filled up to 25 g using a sterile aqueous solution containing 2% Tween 80 and homogenized by vortexing to achieve the first dilution step (1:100 dilution). This dilution is used for further dilution and spotting on agar.
For evaluation of spore germination rate prepare a 1:30000 dilution based on the 1:100 dilution achieved by multiple automated dilution (pipetting robot, 96 well plate). Afterwards 12×12 cm agar plates are taken and spotted with 10 times […] of each sample using an automated 12-Channel pipet. Wait until liquid is soaked up by agar and transfer agar plate to an incubator and incubate at 25° C. for 17 hours. Open the plate and place it under the microscope. Randomly choose one area per spot and record the number of germinated and non-germinated spores that are within the designated field. At least 200 spores per sample need to be evaluated. If needed count more than one field per spot.

Data set [2] concerns Isaria fumosorosea spores. Put plainly: spore viability of Isaria fumosorosea spores in carrier fluid after storage, Method 2 (flow cytometry). Type of data set: cell-based. The protocol:
Method 2: 0.5 g of Isaria fumosoresea pure spore powder were transferred into an Erlenmeyer flask using a sterile spoon. 24.5 mL of fluid were dispersed using Ultra-Turrax (IKA; Type T 25 D) for 1 min at 3,000 rpm. After this, 2.0 mL were transferred in 20 sample bottles (Wheaton Serum vial, Type I) leaving little headspace and closed tight using crimpneck caps (Macherey—Nagel type N 13). Afterwards all sample bottles were transferred to an incubator set at 30° C. and stored for a given time.
In regular intervals a sample was retrieved from the storage location and analyzed for spore viability. For this purpose, the original samples were thoroughly homogenized. Aliquots of 0.5 g of each sample were transferred into 100 mL-Erlenmeyer flask. The flasks were filled up to 50 g using a sterile aqueous solution containing 0.1% Break Thru® 5240 (Evonik, Industries) and homogenized on a magnetic stirrer (Thermo Fisher Scientific: Cimarec™) at least for 15 min with 750 rpm to achieve the first dilution step (1:100 dilution). This dilution was used for further dilution.
Not all samples mixed well or mixed at all in 0.1% Break Thru 5240. For these samples, 500 μL Neo-wett (Kwizda Agro GmbH) and/or a small amount (knife tip) Metaupon®-OMT (LEUNA Tenside GmbH) were also added to the aqueous solution.
After homogenization 1 mL were transferred into a 1.5 mL tube and were centrifuged for 15 min at 14,000 rpm (Thermo Fisher Scientific, Type Megafuge 8R). The supernatant (=upper phase) was discarded by using a pipette. The tubes were filled up to 1 mL using a sterile aqueous solution containing 0.1% Neo-wett and homogenized by vortexing.
To assess fungal viability, a method based on flow cytometry was used.
For orientation: In flow cytometry, cells or beads pass a laser one at a time.

Take “2-(2-Ethoxyethoxy)ethyl acetate; Diethylene glycol monoethyl ether acetate [n-Butyldiglycolacetat]”: the “spore viability [%] at day 1” value in data set [1] (P. lilacinum strain 251 in the liquid, day 1) is 93.2%. Also, in data set [1] (storage at 30° C., 87-92 d), the “spore viability [%] after 3 m (87-92 d)” value is 82.7%. Further, in data set [1] (storage at 30° C., 35 d), the “spore viability [%] after 5 w (35 d)” value came out at 89.3%.
Turning to `CCCCOCCO` [Butylcellosolve, Ethylenglycolmonobutylether, reference compound], in data set [1] (text summary of Table I), the “decline in spore viability at day 1 and after storage” value (“decline in spore viability” for short) is listed as “steep decline in spore viability”.
On to `CCOCCOCCO` [Carbitol, Diethylenglycolmonoethyl ether, reference compound], for which, in data set [2], the “spore viability [%] after 1 m (27 d)” value is given as 12.0%, the “spore viability [%] after 2 w (~14 d)” value is 13.7% and the “spore viability [%] at day 1” value amounted to 78.0%.
Take `CCCCCCOCCO` [Hexylcellosolve, Ethylenglycolmonohexylester, reference compound]: in data set [1], the “spore viability [%] after 3 m (87-92 d)” value was 6.0%, the “spore viability [%] after 5 w (35 d)” value was found to be 27.4% and the “spore viability [%] at day 1” value is listed as 79.5%. For the same molecule, in data set [1] (text summary of Table I), the “decline in spore viability” value is recorded as “steep decline in spore viability”.
Regarding `CCCOCCO` [Propylcellosolve, Ethylenglycolmonopropylether, reference compound], in data set [1], the “spore viability [%] after 3 m (87-92 d)” value is recorded as 0.6%, the “spore viability [%] after 5 w (35 d)” value is 8.1% and the “spore viability [%] at day 1” value was found to be 76.2%. Besides, in data set [1] (text summary of Table I), the “decline in spore viability” value is “steep decline in spore viability”.
With `COCCOCCOCCOCCOC` [Tetraglyme, Tetraethylenglycol diether], in data set [1], the “spore viability [%] after 1 m (27-28 d)” value is on record as 94.8%, the “spore viability [%] after 2 m (51-55 d)” value was determined as 93.2%, the “spore viability [%] after 2 w (12-15 d)” value was found to be 97.6% and the “spore viability [%] after 7 m (210 d)” value is 83.5%. Further, the “spore viability [%] at day 1” value in data set [1] turned out to be 97.2%. The “spore viability after storage for 7 months at 30° C. (in words)” value in data set [1] (text summary of Table I) is listed as “exceptional spore viability”.
Turning to `CCCCOCCOCCOCCO` [Triethylenglycol monobutylether, Triethylenglycol-monobutylether], in data set [1] (Purpureocillium lilacinum), the “spore viability [%] after 1 m (27-28 d)” value was determined as 57.5% and the “spore viability [%] after 3 m (87-92 d)” value stood at 50.8%. In addition, in data set [1] (Purpureocillium lilacinum, 1 d), the “spore viability [%] at day 1” value stood at 77.5%.
Regarding “Polyethylene glycol Monooleate [Alkamuls A]”, in data set [2], the “spore viability [%] after 1 m (27 d)” value was determined as 90.7%, the “spore viability [%] after 2 w (~14 d)” value is 93.0% and the “spore viability [%] at day 1” value was determined as 94.4%.
With “Polyethyleneglycol-400 monolaurate [Radiasurf 7423]”, in data set [2], the “spore viability [%] after 1 m (27 d)” value turned out to be 42.3%, the “spore viability [%] after 2 w (~14 d)” value worked out at 58.0% and the “spore viability [%] at day 1” value was determined as 86.7%. Also, in data set [1], the “spore viability [%] after 1 m (27-28 d)” value was 93.8%, the “spore viability [%] after 2 m (51-55 d)” value worked out at 79.7%, the “spore viability [%] after 2 w (12-15 d)” value came out at 91.4% and the “spore viability [%] after 7 m (210 d)” value stood at 36.9%. Moreover, in data set [1], the “spore viability [%] at day 1” value turned out to be 90.8% and the “spore viability after storage for 2 or 3 months, respectively” value is reported as at least 80%.
In the case of Polyethylenglycol- 300 [Pluriol E300], in data set [2], the “spore viability [%] after 1 m (27 d)” value stood at 87.0%, the “spore viability [%] after 3 months” value is on record as 45.0* % and the “spore viability [%] at day 1” value was 96.0%.
In the case of Tween 80, in data set [2], the “spore viability [%] after 1 m (27 d)” value turned out to be 72.0%, the “spore viability [%] after 2 w (~14 d)” value is on record as 76.4% and the “spore viability [%] at day 1” value stood at 96.2%.
